Where a name gives a salt, the structure may show the parent alone. Starred links: 1 amine or outer side, 2 acyl side, 3 side chain; linkers in the order of their positions; H or OH if unused. Positions of bridges follow the written chain, without caps; N, C: chain ends. Non-standard residues stand in square brackets, D forms with d. Residues, ends and D or L forms follow the SMILES beside them. Chains are numbered I, II in the order given. *: point of attachment. TATA = O=C(CC[*:1])N1CN(C(=O)CC[*:2])CN(C(=O)CC[*:3])C1; Dolaproine = CO[C@@H]([C@@H]1CCCN1)[C@@H](C)C(=O)O; Dil = CC[C@H](C)[C@H](NC)[C@@H](CC(=O)O)OC; 1Nal = N[C@@H](Cc1cccc2ccccc12)C(=O)O; X2 = O=C(CCCC(=O)[*:2])NCCC(=O)[*:1]; PABC = O=C(OCc1ccc(N[*:1])cc1)[*:2]; X1 = C[C@@H](N*)[C@@H](O)c1ccccc1; Hyp = O=C(O)[C@@H]1C[C@@H](O)CN1; hArg = N=C(N)NCCCC[C@H](N)C(=O)O; Cit = NC(=O)NCCC[C@H](N)C(=O)O; Pen = CC(C)(S)[C@H](N)C(=O)O; NMeV = CN[C@H](C(=O)O)C(C)C; hCys = N[C@@H](CCS)C(=O)O; Sar = CNCC(=O)O
How the values were obtained:
[1] = Pharmacokinetic analysis in Cynomolgus macaque plasma; type: in vivo; conditions: Cynomolgus macaques, single IV 1 mg/kg of the compound
Procedure: Test Example 6: Pharmacokinetic Analysis in Cynomolgus Macaque Plasma
To test the pharmacokinetics of the compounds of the present invention in Cynomolgus macaques.
(§1) The pharmacokinetic characteristics of the compound after intravenous injection were tested according to a standard protocol in Cynomolgus macaques. The compound to be tested was formulated into a clear solution using 25 mM L-histidine (pH=7) in 10% sucrose as a vehicle. Cynomolgus macaques were given a single intravenous injection of 1 mg/kg of the compound to be tested. Whole blood was collected at time points of 0.083, 0.25, 0.5, 1, 2, 4, 8, and 24 hours after administration to get plasma. The concentration of the compound to be tested and the concentration of its potential metabolite MMAE were analyzed by the LC-MS/MS method, and the pharmacokinetic parameters were calculated by Phoenix WinNonlin software.

[2] = Pharmacokinetic analysis in rat plasma; type: in vivo, SD rats
Procedure: Test Example 5: Pharmacokinetic Analysis of the Compounds of the Present Invention in Rat Plasma
To test the pharmacokinetics of the compounds of the present invention in SD rats.
as §1, with “were tested in rats according to” for “were tested according to”, “a standard protocol. The compound” for “a standard protocol in Cynomolgus macaques. The compound”, “a vehicle. Two rats were given” for “a vehicle. Cynomolgus macaques were given”, “injection of 3 mg/kg of” for “injection of 1 mg/kg of”, “the compound of the present invention and the” for “the compound to be tested and the”

Human Nectin-4 = target: T1, Human Nectin-4 (Homo sapiens, UniProt Q96NY8); assay: Binding capacity to Nectin-4 protein (SPR, Biacore 8K)
T1 construct: purchased GE Healthcare 1006-72
T1 sequence (Q96NY8 32-510): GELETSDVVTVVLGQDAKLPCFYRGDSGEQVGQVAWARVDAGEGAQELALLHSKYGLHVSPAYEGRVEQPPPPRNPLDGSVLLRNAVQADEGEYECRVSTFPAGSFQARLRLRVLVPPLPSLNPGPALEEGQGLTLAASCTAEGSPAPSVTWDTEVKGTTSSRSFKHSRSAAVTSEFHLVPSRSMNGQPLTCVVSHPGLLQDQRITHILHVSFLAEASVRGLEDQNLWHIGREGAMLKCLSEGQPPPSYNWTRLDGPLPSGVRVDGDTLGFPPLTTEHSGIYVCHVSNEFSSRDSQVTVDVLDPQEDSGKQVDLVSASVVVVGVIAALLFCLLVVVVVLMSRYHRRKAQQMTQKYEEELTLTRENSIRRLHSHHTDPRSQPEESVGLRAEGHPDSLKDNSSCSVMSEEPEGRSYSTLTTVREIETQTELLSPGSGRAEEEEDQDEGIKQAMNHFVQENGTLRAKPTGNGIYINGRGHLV
Procedure: Test Example 1. Binding Capacity Test of the Compounds of the Present Invention to Nectin-4 Protein
To detect the affinity of the compound to be tested to the target protein Nectin-4 using the SPR method.
• Biacore 8K (GE Healthcare) • 96-well Plate (Cat #650101, greiner bio-one) • CM5 chip (Cat #BR-1005-30, GE Healthcare) • Amine Coupling Kit (Cat #BR-1000-50, GE Healthcare) • EDC • NHS • 1 M ethanolamine • 10 mM sodium acetate pH 4.5 (Cat #BR-1003-50, GE Healthcare) • DMSO (Cat #D4540, Sigma) • P20 (Cat #BR-1000-54, GE Healthcare) • PBS (Cat #BR-1006-72, GE Healthcare) • Nectin-4 (Cat #1006-72, GE Healthcare) 3. Experimental Protocol
In this experiment, the amino coupling method was used. The target protein Nectin-4 was directly immobilized on the CM5 chip using Biacore 8K. […] The final data were subjected to Kinetics fitting analysis based on a 1:1 model using Biacore Insight Evaluation Software (V 2.0.15.12933).
1) Preparation of the buffer: 10 mM PBS, pH 7.4, 137 mM NaCl, 2.7 mM KCl, 5% DMSO, and 0.05% P20.
2) Activation of the CM5 chip: The CM5 chip was activated with 400 mM EDC and 100 mM NHS at a flow rate of 10 μL/min for 420 seconds.
3) Coupling of the target protein: The target protein was diluted to 10 μg/mL with 10 mM sodium acetate (pH 4.5) and coupled at a flow rate of 10 μL/min for 284 s. The 1 #, 2 #, and 3 #channels on the chip were used in the experiment, and the coupling results were 1639.9RU, 1747.8RU, and 1702.2RU, respectively.
4) Blocking of the CM5 chip: The CM5 chip was blocked with 1 M ethanolamine at a flow rate of 10 μL/min for 420 seconds.
5) Analyte concentration: The compound to be tested was diluted with the buffer. The compound to be tested was diluted from 100 nM to 0.78 nM in a 2-fold gradient.
6) Sample injection analysis: Each concentration of the working solution of the compound to be tested corresponded to one cycle, with a flow rate of 30 μL/min for binding for 180 seconds and dissociating for 180 seconds. The last cycle was a 5% DMSO solvent correction cycle.
7) All results were subjected to kinetics fitting analysis based on a 1:1 model. […]

[3] = metabolite MMAE in SD rat plasma after single IV 3 mg/kg acetate salt of PDC_2

| Compound | MMAE release in blood [1] | exposure of metabolite MMAE relative to exposure of the compound ([2]; SD rats, single IV 3 mg/kg) | AUC0-last [2, 3] [µM·h] | Cmax [2, 3] [nM] | Kd (Human Nectin-4) [nM] |
| --- | --- | --- | --- | --- | --- |
| CC[C@H](C)[C@@H]([C@@H](CC(=O)N1CCC[C@H]1[C@H](OC)[C@@H](C)C(=O)N[C@H](C)[C@@H](O)c1ccccc1)OC)N(C)C(=O)[C@@H](NC(=O)[C@@H](NC)C(C)C)C(C)C [MMAE, monomethyl auristatin E] (H-[NMeV]V[Dil][Dolaproine]-X1) | lower MMAE release in blood than a detection limit | about 1/40 | 0.11 | 70 | – |
| CC[C@H](C)[C@@H]([C@@H](CC(=O)N1CCC[C@H]1[C@H](OC)[C@@H](C)C(=O)N[C@H](C)[C@@H](O)c1ccccc1)OC)N(C)C(=O)[C@@H](NC(=O)[C@H](C(C)C)N(C)C(=O)OCc1ccc(NC(=O)[C@H](CCCNC(N)=O)NC(=O)[C@@H](NC(=O)CCCC(=O)NCCC(=O)N(C)CC(=O)N(C)CC(=O)N(C)CC(=O)N(C)CC(=O)N(C)CC(=O)N(C)CC(=O)N(C)CC(=O)N(C)CC(=O)N(C)CC(=O)N(C)CC(=O)N[C@H]2CCCCNC(=O)C[C@@H](C(=O)N[C@H]3CSCCC(=O)N4CN5CN(C4)C(=O)CCSC(C)(C)[C@H](NC(=O)[C@@H](CC(=O)O)NC(=O)[C@H](Cc4cccc6ccccc46)NC(=O)[C@@H]4CCCN4C3=O)C(=O)N[C@@H](CCSC)C(=O)N[C@@H](CCCCNC(=N)N)C(=O)N[C@@H](CC(=O)O)C(=O)N[C@@H](Cc3c[nH]c4ccccc34)C(=O)N[C@@H](CO)C(=O)N[C@@H]([C@@H](C)O)C(=O)N3CCC[C@H]3C(=O)N3C[C@H](O)C[C@H]3C(=O)N[C@@H](Cc3c[nH]c4ccccc34)C(=O)N[C@H](C(N)=O)CCSCCC5=O)NC(=O)CN(C)C2=O)C(C)C)cc1)C(C)C [Acetate salt of PDC_3] (I: [Sar][Sar][Sar][Sar][Sar][Sar][Sar][Sar][Sar][Sar]K[Sar]DCP[1Nal][dD][Pen]M[hArg]DWSTP[Hyp]W[hCys]-NH2 / II: V[Cit][PABC][NMeV]V[Dil][Dolaproine]-X1; lactam I:11-I:13; linker I:14-I:18-I:28 via TATA; linker I:N-II:N via X2) | – | – | – | – | 4.13 |
| CC[C@H](C)[C@@H]([C@@H](CC(=O)N1CCC[C@H]1[C@H](OC)[C@@H](C)C(=O)N[C@H](C)[C@@H](O)c1ccccc1)OC)N(C)C(=O)[C@@H](NC(=O)[C@H](C(C)C)N(C)C(=O)OCc1ccc(NC(=O)[C@H](CCCNC(N)=O)NC(=O)[C@@H](NC(=O)CCCC(=O)NCCC(=O)N(C)CC(=O)N(C)CC(=O)N(C)CC(=O)N(C)CC(=O)N(C)CC(=O)N(C)CC(=O)N(C)CC(=O)N(C)CC(=O)N(C)CC(=O)N(C)CC(=O)N[C@H]2CCCCNC(=O)C[C@@H](C(=O)N[C@H]3CSCCC(=O)N4CN5CN(C4)C(=O)CCSC(C)(C)[C@H](NC(=O)[C@@H](CC(=O)O)NC(=O)[C@H](Cc4cccc6ccccc46)NC(=O)[C@@H]4CCCN4C3=O)C(=O)N[C@@H](CCSC)C(=O)N[C@@H](CCCCNC(=N)N)C(=O)N[C@@H](CC(=O)O)C(=O)N[C@@H](Cc3c[nH]c4ccccc34)C(=O)N[C@@H](CO)C(=O)N[C@@H]([C@@H](C)O)C(=O)N3CCC[C@H]3C(=O)N3C[C@H](O)C[C@H]3C(=O)N[C@@H](Cc3c[nH]c4ccccc34)C(=O)N[C@H](C(N)=O)CSCCC5=O)NC(=O)[C@H](CCCCNC(=N)N)NC2=O)C(C)C)cc1)C(C)C [Acetate salt of PDC_1] (I: [Sar][Sar][Sar][Sar][Sar][Sar][Sar][Sar][Sar][Sar]K[hArg]DCP[1Nal][dD][Pen]M[hArg]DWSTP[Hyp]WC-NH2 / II: V[Cit][PABC][NMeV]V[Dil][Dolaproine]-X1; lactam I:11-I:13; linker I:14-I:18-I:28 via TATA; linker I:N-II:N via X2) | – | – | – | – | 1.4 |
